Data taken from ChEMBL document CHEMBL1201862, “PubChem BioAssay data set” (2004).
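All cell lines were grown in 96-well plates and treated with compound for 48 hours. Abbreviation: GI50, concentration required for 50% inhibition of growth.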 Active and inactive are the calls of the source. Rule as the data show it: active = GI50 up to about 1.1 µM and inactive = higher.

Assays:
Experiment in all cases: NCI tumour cell line growth inhibition, 48 h
CCRF-CEM = tested on: CCRF-CEM
EKVX = tested on: EKVX
HCC 2998 = tested on: HCC 2998
HL-60 = tested on: HL-60
KM12 = tested on: KM12
M14 = tested on: M14
MCF7 = tested on: MCF7
MDA-MB-435 = tested on: MDA-MB-435
NCI-H23 = tested on: NCI-H23
NCI-H522 = tested on: NCI-H522
SF-268 = tested on: SF-268
SF-295 = tested on: SF-295
SK-MEL-28 = tested on: SK-MEL-28
SN12C = tested on: SN12C
SNB-19 = tested on: SNB-19
SNB-75 = tested on: SNB-75
TK-10 = tested on: TK-10
UACC-257 = tested on: UACC-257
UO-31 = tested on: UO-31
A498 = tested on: A498

Measured: GI50

Cc1cc(Cl)nc2nc(Cl)c(N)cc12
inactive: CCRF-CEM 1.67 µM | EKVX 3.48 µM | HCC 2998 1.86 µM | HL-60 1.77 µM | KM12 5.32 µM | M14 8.67 µM | MCF7 1.63 µM | MDA-MB-435 2.22 µM | NCI-H23 7.24 µM | NCI-H522 4.53 µM | SF-268 2.29 µM | SF-295 12.3 µM | SK-MEL-28 2.56 µM | SN12C 1.9 µM | SNB-19 4.95 µM | SNB-75 10.6 µM | TK-10 6.58 µM | UACC-257 1.87 µM | UO-31 3.92 µM

COc1ccc(N[C@H](CSc2ccc(C)cc2)c2ccc(F)cc2)cc1
inactive: CCRF-CEM > 100 µM | EKVX > 100 µM | HCC 2998 > 100 µM | KM12 > 100 µM | M14 > 100 µM | MCF7 61.8 µM | MDA-MB-435 > 100 µM | NCI-H23 39.3 µM | NCI-H522 38.9 µM | SF-268 > 100 µM | SF-295 > 100 µM | SK-MEL-28 > 100 µM | SN12C > 100 µM | SNB-19 > 100 µM | SNB-75 > 100 µM | TK-10 > 100 µM | UACC-257 40 µM | UO-31 > 100 µM

Cc1ccc(S(=O)(=O)NC(=O)Nc2cc(Cl)c(S(N)(=O)=O)cc2S(N)(=O)=O)cc1
inactive: CCRF-CEM > 100 µM | EKVX > 100 µM | HL-60 > 100 µM | KM12 > 100 µM | M14 > 100 µM | MCF7 > 100 µM | MDA-MB-435 > 100 µM | NCI-H23 > 100 µM | NCI-H522 > 100 µM | SF-268 > 100 µM | SF-295 > 100 µM | SK-MEL-28 > 100 µM | SN12C > 100 µM | SNB-19 > 100 µM | SNB-75 > 100 µM | TK-10 > 100 µM | UACC-257 > 100 µM | UO-31 > 100 µM

CC(=O)OCC(OC(C)=O)C(OC(C)=O)C(/C=N\Nc1nc2ccccc2c(=O)[nH]1)=N\Nc1nc2ccccc2c(=O)[nH]1 (centres undefined)
inactive: CCRF-CEM 34.4 µM | EKVX > 100 µM | HCC 2998 19.1 µM | HL-60 > 100 µM | KM12 4.68 µM | M14 > 100 µM | MCF7 > 100 µM | MDA-MB-435 > 100 µM | NCI-H23 > 100 µM | NCI-H522 > 100 µM | SF-268 > 100 µM | SF-295 > 100 µM | SK-MEL-28 > 100 µM | SN12C > 100 µM | SNB-19 > 100 µM | SNB-75 > 100 µM | UACC-257 17.3 µM | UO-31 > 100 µM

O=[N+]([O-])c1ccccc1S(=O)(=O)N1CCCc2cc(Cl)ccc21
inactive: A498 27.2 µM | CCRF-CEM 8.91 µM | EKVX 77.4 µM | HCC 2998 38 µM | HL-60 6.3 µM | KM12 18.5 µM | M14 46.5 µM | MCF7 28.2 µM | MDA-MB-435 4.46 µM | NCI-H23 34 µM | SF-268 > 68.1 µM | SF-295 23.5 µM | SK-MEL-28 61 µM | SN12C 82.4 µM | SNB-19 > 80.2 µM | SNB-75 4.59 µM | TK-10 > 100 µM | UACC-257 12.6 µM | UO-31 30.6 µM

COc1ccc2c(c1)CC1C3(CCCCC23)CC[N+]1(C)C (centres undefined)
inactive: CCRF-CEM > 100 µM | EKVX > 100 µM | HCC 2998 > 100 µM | HL-60 50.5 µM | KM12 > 100 µM | M14 > 100 µM | MCF7 > 100 µM | MDA-MB-435 84.9 µM | NCI-H23 > 100 µM | NCI-H522 58.9 µM | SF-268 90.8 µM | SF-295 > 100 µM | SK-MEL-28 > 100 µM | SN12C 38.7 µM | SNB-19 73.5 µM | SNB-75 34.4 µM | TK-10 > 100 µM | UACC-257 > 100 µM | UO-31 > 100 µM

O=C(O)c1cc(C(=O)C(=O)c2cc(C(=O)O)c(O)c3ccccc23)c2ccccc2c1O
inactive: A498 > 100 µM | EKVX > 100 µM | HCC 2998 > 100 µM | KM12 > 100 µM | M14 > 100 µM | MCF7 > 100 µM | MDA-MB-435 > 100 µM | NCI-H23 > 100 µM | NCI-H522 > 100 µM | SF-268 > 100 µM | SF-295 > 100 µM | SK-MEL-28 > 100 µM | SN12C > 100 µM | SNB-19 > 100 µM | SNB-75 > 100 µM | TK-10 > 100 µM | UACC-257 > 100 µM | UO-31 > 100 µM
